Test results reported in US20140303092A1 (CHIMERIX, INC., priority 2011, published 2014).

Assay: Study HDP-CDV-201: safety and tolerability (adverse events, laboratory abnormalities, discontinuations)
Type: in vivo, human (adult allogeneic HSCT recipients)
Method: Clinical Studies of HDP-CDV were performed and described in detail in the following Examples. For example, HDP-CDV-201 is a placebo-controlled, dose-escalating trial in HSCT CMV (R+) recipients, evaluating the ability of HDP-CDV to prevent or control CMV infection was carried out. Five cohorts were established in which participants or subjects received either placebo or the HDP-CDV orally, in doses ranging from 40 mg weekly (QW) to 200 mg twice weekly (BIW). Subjects who were post-HSCT were enrolled at the time of engraftment and randomized to HDP-CDV or placebo (3 to 1 ratio) and received blinded therapy until approximately 100 day post-transplantation. HDP-CDV doses were 40 mg QW, 100 mg QW, 200 mg QW, 200 mg BIW and 100 mg BIW. Escalation to the next dose was decided by the data monitoring committee after review of the safety data from the previous Cohort. Subjects who developed CMV disease or CMV infection requiring pre-emptive therapy with local standard of care were discontinued from blinded therapy and followed for 4 weeks. Subjects who completed treatment with blinded therapy were followed for 8 weeks post-therapy.
Data from Study HDP-CDV-201 also provided characterization of the safety and tolerability profile of HDP-CDV when administered for the prevention or control of CMV infection in high risk (R^+) post-HSCT adult subjects.
The Safety population (SAFETY) included all randomized subjects who took at least one dose of study treatment. This population was used to summarize safety outcomes based on the treatment actually received, in cases where a subject was treated contrary to the randomization schedule.
The safety and tolerability profile of HDP-CDV, including subject demographics and Baseline characteristics; the AE profile; and laboratory abnormalities of interest were analyzed in the cohorts followed in this investigation.
Subjects completing the treatment period received a full course of study medication; those completing the entire study attended visits through 8 weeks of follow up. Subjects who discontinued treatment may have done so for protocol specified reasons (e.g. development of clinically significant CMV infection requiring preemptive treatment with excluded anti-CMV medications) or for other reasons (e.g., withdrawal, adverse events, loss to follow-up). The disposition of subjects in Study HDP-CDV-201 during the double-blind, placebo-controlled treatment period (through Week 11) is listed by dosing Cohort in TABLE 23.
Adverse events were examined by severity to ensure that all safety signals were identified in this study population. Because of the frequency of events in HSCT recipients, particular attention was given to evaluation of Grade 3 […], 4 (severe), and 5 (fatal) adverse events.
Only those preferred terms for which at least one Grade 3 or higher event was experienced in any treatment group are listed. Cytomegalovirus-related AEs are excluded from this analysis.
HDP-CDV is a lipid conjugate of CDV. Because CDV is known to have adverse effects on renal function and bone marrow, decreased GFR and persistent neutropenia were identified as AEs of special interest. Key renal and hematological (TABLE 30) laboratory parameters were measured and listed below by Study HDP-CDV-201 treatment groups. TABLE 30 includes abnormal levels of serum creatinine, neutrophils, platelets, WBCs, and hemoglobin and includes data at Screening and during the treatment period.
A common metric for unit based dosing of medications is by weight (mg/kg). When the distribution of weights was examined for all subjects participating in the study, the median was 78 kg and the lower 25th percentile weight was approximately 65 kg, which translates to a cut-off of ˜3 mg/kg for a 200 mg total weekly dose. Based upon this approach, a cut-off of 3 mg/kg was used to assess the frequency of diarrhea and associated GI AEs reported for the subjects in Cohorts 3 or 4a (TABLE 40).

## CCCCCCCCCCCCCCCCOCCCOP(=O)(O)COC(CO)Cn1ccc(N)nc1=O (stereo not drawn) [HDP-CDV]
40 mg QW
  TEAE Pneumonia, Grade 4: 1 (4.0%)
  TEAE Pneumonia, Grade 5: 0
  TEAE Pyrexia, Frequency: 1 (4.0%)
  TEAE Pyrexia, Grade 2: 1 (4.0%)
  TEAE Pyrexia, Grade 3: 0
  TEAE Pyrexia, Grade 4: 0
  TEAE Pyrexia, Grade 5: 0
  TEAE Renal Failure, Frequency: 1 (4.0%)
  TEAE Renal Failure, Grade 2: 0
  TEAE Renal Failure, Grade 3: 1 (4.0%)
  TEAE Renal Failure, Grade 4: 0
  TEAE Renal Failure, Grade 5: 0
  TEAE Staphylococcal Bacteremia, Frequency: 0
  TEAE Staphylococcal Bacteremia, Grade 2: 0
  TEAE Staphylococcal Bacteremia, Grade 3: 0
  TEAE Staphylococcal Bacteremia, Grade 4: 0
  TEAE Staphylococcal Bacteremia, Grade 5: 0
  TEAE Thrombocytopenia, Frequency: 3 (12.0%)
  TEAE Thrombocytopenia, Grade 2: 1 (4.0%)
  TEAE Thrombocytopenia, Grade 3: 1 (4.0%)
  TEAE Thrombocytopenia, Grade 4: 1 (4.0%)
  TEAE Thrombocytopenia, Grade 5: 0
  TEAE Vomiting, Frequency: 2 (8.0%)
  TEAE Vomiting, Grade 2: 1 (4.0%)
  TEAE Vomiting, Grade 3: 0
  TEAE Vomiting, Grade 4: 0
  TEAE Vomiting, Grade 5: 0
  subjects discontinued due to acute renal failure: one
40 mg QW, n = 25
  Subjects Reporting Diarrhea as an AE: 3 (12.0%)
40 mg QW, active treatment period
  Discontinuation: Death: 1 (4.0%) Subject n (%)
40 mg QW, active treatment period through Week 11
  Discontinuation: Adverse event: 3 (12.0%) Subject n (%)
100 mg BIW
  TEAE ALT increased, Frequency: 9 (18.0%)
  TEAE ALT increased, Grade 2: 1 (2.0%)
  TEAE ALT increased, Grade 3: 4 (8.0%)
  TEAE ALT increased, Grade 4: 0
  TEAE ALT increased, Grade 5: 0
  TEAE AML, Recurrent, Frequency: 3 (6.0%)
  TEAE AML, Recurrent, Grade 2: 1 (2.0%)
  TEAE AML, Recurrent, Grade 3: 0
  TEAE AML, Recurrent, Grade 4: 1 (2.0%)
  TEAE AML, Recurrent, Grade 5: 1 (2.0%)
  TEAE AST increased, Frequency: 5 (10.0%)
  TEAE AST increased, Grade 2: 1 (2.0%)
  TEAE AST increased, Grade 3: 3 (6.0%)
  TEAE AST increased, Grade 4: 0
  TEAE AST increased, Grade 5: 0
  TEAE Abdominal pain, Frequency: 13 (26.0%)
  TEAE Abdominal pain, Grade 2: 1 (2.0%)
  TEAE Abdominal pain, Grade 3: 1 (2.0%)
  TEAE Abdominal pain, Grade 4: 0
  TEAE Abdominal pain, Grade 5: 0
  TEAE Acute GVHD, Frequency: 32 (64.0%)
  TEAE Acute GVHD, Grade 2: 11 (22.0%)
  TEAE Acute GVHD, Grade 3: 12 (24.0%)
  TEAE Acute GVHD, Grade 4: 5 (10.0%)
  TEAE Arthralgias, Frequency: 3 (6.0%)
  TEAE Arthralgias, Grade 2: 1 (2.0%)
  TEAE Arthralgias, Grade 3: 1 (2.0%)
  TEAE Arthralgias, Grade 4: 0
  TEAE Arthralgias, Grade 5: 0
  TEAE Back Pain, Frequency: 4 (8.0%)
  TEAE Back Pain, Grade 2: 3 (6.0%)
  TEAE Back Pain, Grade 3: 0
  TEAE Back Pain, Grade 4: 0
  TEAE Back Pain, Grade 5: 0
  TEAE Decreased appetite, Frequency: 9 (18.0%)
  TEAE Decreased appetite, Grade 3: 3 (6.0%)
  TEAE Decreased appetite, Grade 4: 0
  TEAE Decreased appetite, Grade 5: 0
  TEAE Diarrhea, Frequency: 26 (52.0%)
  TEAE Diarrhea, Grade 2: 6 (12.0%)
  TEAE Diarrhea, Grade 3: 9 (18.0%)
  TEAE Diarrhea, Grade 4: 0
  TEAE Diarrhea, Grade 5: 0
  TEAE Fatigue, Frequency: 9 (18.0%)
  TEAE Fatigue, Grade 2: 2 (4.0%)
  TEAE Fatigue, Grade 3: 0
  TEAE Fatigue, Grade 4: 0
  TEAE Fatigue, Grade 5: 0
  TEAE GGT Increased, Frequency: 4 (8.0%)
  TEAE GGT Increased, Grade 2: 1 (2.0%)
  TEAE GGT Increased, Grade 3: 3 (6.0%)
  TEAE GGT Increased, Grade 4: 0
  TEAE GGT Increased, Grade 5: 0
  TEAE Generalized oedema, Frequency: 1 (2.0%)
  TEAE Generalized oedema, Grade 2: 1 (2.0%)
  TEAE Generalized oedema, Grade 3: 0
  TEAE Generalized oedema, Grade 4: 0
  TEAE Generalized oedema, Grade 5: 0
  TEAE Hyperbilirubinaemia, Frequency: 3 (6.0%)
  TEAE Hyperbilirubinaemia, Grade 2: 1 (2.0%)
  TEAE Hyperbilirubinaemia, Grade 3: 0
  TEAE Hyperbilirubinaemia, Grade 4: 0
  TEAE Hyperbilirubinaemia, Grade 5: 0
  TEAE Hyperglycaemia, Frequency: 9 (18.0%)
  TEAE Hyperglycaemia, Grade 2: 4 (8.0%)
  TEAE Hyperglycaemia, Grade 3: 2 (4.0%)
  TEAE Hyperglycaemia, Grade 4: 1 (2.0%)
  TEAE Hyperglycaemia, Grade 5: 0
  TEAE Hyperkalemia, Frequency: 3 (6.0%)
  TEAE Hyperkalemia, Grade 2: 2 (4.0%)
  TEAE Hyperkalemia, Grade 3: 0
  TEAE Hyperkalemia, Grade 4: 0
  TEAE Hyperkalemia, Grade 5: 0
  TEAE Hypocalcaemia, Frequency: 2 (4.0%)
  TEAE Hypocalcaemia, Grade 2: 1 (2.0%)
  TEAE Hypocalcaemia, Grade 3: 1 (2.0%)
  TEAE Hypocalcaemia, Grade 4: 0
  TEAE Hypocalcaemia, Grade 5: 0
  TEAE Hypokalaemia, Frequency: 8 (16.0%)
  TEAE Hypokalaemia, Grade 2: 2 (4.0%)
